Reference: US20060019951A1, “Vacuolins” (CBR Institute for Biomedical Research, priority 2002, published 2006)

Tested on: vacuole formation in cells exposed to a vacuolin
Test: Conditions under which vacuole formation is blocked in cells exposed to a vacuolin
Format: cell-based
Details: FIGS. 8-10
Source text: Additional studies were directed at identifying conditions under which vacuole formation is blocked (see, for example, FIGS. 8-10). […] It is likely that the intravacuolar pH is higher than the low pH of lysosomes; the vacuoles are likely to accumulate Cl ions (see, for example, FIG. 11).

## CO/C1=C\C(C)=C\[C@@H](C)[C@@H](O)[C@@H](C)C/C(C)=C/C=C/[C@H](OC)[C@@H]([C@@H](C)[C@@H](O)[C@H](C)[C@@]2(O)C[C@@H](O)[C@H](C)[C@@H](C(C)C)O2)OC1=O [bafilomycin A]
  effect on vacuole formation in cells exposed to a vacuolin: inhibited
